A value given as a limit tells only on which side of the number the result lay.

One assay deals with HCV replicon. In words: Replicon based assay of HCV replication inhibition (NPT ELISA). Type of assay: cell-based, Hepatitis C virus. The settings on record: Hepatitis C virus, Huh-7, 72 h, Table I; Huh-7 HCV replicon-containing cells, three days; read-out: Activity. The method, boiled down:
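Huh-7 cells carrying a bicistronic HCV replicon (neo, EMCV-IRES-driven NS3–NS5B) treated overnight after seeding with usually 6 concentrations, 10 to 0.03 micromolar, for three days at 37° C without G418. Replication read as NPT level by captured ELISA; matched-DMSO wells and interferon alpha as controls.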
A general note: A replicon is a self-replicating genome or part of one, used to study replication in cells.
Turning to `CCCCCOc1ccc(N(C(C)=O)c2nc(-c3ccc(F)cc3)cs2)cc1C(F)(F)F` [compound 116, N-(3-(trifluoromethyl)-4-(pentyloxy)phenyl)-N-(4-(4-fluorophenyl)thiazol-2-yl)acetamide], the EC50 was under 1000 nM.
Consider `CCCCCOc1ccc(Nc2nc(-c3ccc(C(=O)N(C)C)cn3)cs2)cc1C(F)(F)F` [compound 215, 6-(2-(3-(trifluoromethyl)-4-(pentyloxy)phenylamino)thiazol-4-yl)-N,N-dimethylpyridine-3-carboxamide], for which the EC50 was under 1000 nM.
The same measure, in the same setting: then `CCCCCOc1ccc(Nc2nc(-c3cn4ccccc4n3)cs2)cc1C(F)(F)F` [compound 223, N-(3-(trifluoromethyl)-4-(pentyloxy)phenyl)-4-(H-imidazo[1,2-a]pyridin-2-yl)thiazol-2-amine], with under 1000 nM.
`CCCCCOc1ccc(Nc2nc(-c3cc(C(=O)OCC)no3)cs2)cc1F` [compound 176, ethyl 5-(2-(3-fluoro-4-(pentyloxy)phenylamino)thiazol-4-yl)isoxazole-3-carboxylate]: the EC50 is over 10000 nM.
For `Cc1nccc(-c2cccc(Nc3nc(-c4cccnc4)cs3)c2)n1` [compound 105, N-(3-(2-methylpyrimidin-4-yl)phenyl)-4-(pyridin-3-yl)thiazol-2-amine], the EC50 was over 10000 nM.
As for `c1ccc(Oc2cccc(Nc3nc(-c4cccnc4)cs3)c2)cc1` [compound 88, N-(3-phenoxyphenyl)-4-(pyridin-3-yl)thiazol-2-amine], the EC50 was under 1000 nM.
Regarding `CCCCOc1ccc(CNc2nc(-c3cccnc3)cs2)cc1` [compound 81, N-(4-butoxybenzyl)-4-(pyridin-3-yl)thiazol-2-amine], the EC50 was over 10000 nM.
In the case of `Fc1ccc(-c2csc(Nc3cccc(OCc4ccccc4)c3)n2)cc1` [compound 27, N-(3-(benzyloxy)phenyl)-4-(4-fluorophenyl)thiazol-2-amine], the EC50 is under 1000 nM.
On to `CCCCCOc1ccc(Nc2nc(-c3ccc(Cl)cc3)c(-c3ccccc3)s2)cc1C(F)(F)F` [compound 135, 4-(4-chlorophenyl)-N-(3-(trifluoromethyl)-4-(pentyloxy)phenyl)-5-phenylthiazol-2-amine], for which the EC50 is over 10000 nM.

Still in this assay, the particulars now being: Hepatitis C virus, Huh-7, 72 h, Table III; Huh-7 HCV replicon-containing cells, three days; read-out: Activity.
For `CCC(CC)Oc1ccc(Nc2nc(-c3cccnc3)cs2)cc1C(F)(F)F` [compound 645, N-(3-(trifluoromethyl)-4-(pentan-3-yloxy)phenyl)-4-(pyridin-3-yl)thiazol-2-amine], the EC50 is under 1000 nM.
In the case of `CCCCCCCCOc1ccc(Nc2nc(-c3cc4ccccc4o3)cs2)cc1C(F)(F)F` [compound 589, 4-(benzofuran-2-yl)-N-(3-(trifluoromethyl)-4-(octyloxy)phenyl)thiazol-2-amine], the EC50 was under 1000 nM.
On the same count and under the same terms, next, `CCCCCCCCN(C)c1ccc(Nc2nc(-c3ccc4c(c3)NC(=O)CO4)cs2)cc1C(F)(F)F` [compound 572, 6-(2-(4-(N-methyl-N-octylamino)-3-(trifluoromethyl)phenylamino)thiazol-4-yl)-2H-benzo[b][1,4]oxazin-3(4H)-one]: 1000 to 10000 nM.
With `CCCCCCCCOc1ccc(Nc2nc(-c3cncc(C(=O)N(C)C)c3)cs2)cc1` [compound 649, 5-(2-(4-(octyloxy)phenylamino)thiazol-4-yl)-N,N-dimethylpyridine-3-carboxamide], the EC50 was in the range of 1000 to 10000 nM.
On to `CC(C)=CCC/C(C)=C/COc1ccc(Nc2nc(-c3cccnc3)cs2)cc1C(F)(F)F` [compound 690, N-(4-((E)-3,7-dimethylocta-2,6-dienyloxy)-3-(trifluoromethyl)phenyl)-4-(pyridin-3-yl)thiazol-2-amine], for which the EC50 was under 1000 nM.
The same measure, in the same setting: then `CCCCCCCCOc1ccc(Nc2nc(-c3ccc4[nH]c(=O)oc(=O)c4c3)cs2)cc1C(F)(F)F` [compound 665, 6-(2-(3-(trifluoromethyl)-4-(octyloxy)phenylamino)thiazol-4-yl)-1H-benzo[d][1,3]oxazine-2,4-dione], with under 1000 nM; and `CCCCCCCCN(C)c1ccc(Nc2nc(Cc3ccc(F)cc3)cs2)cc1` [compound 632, N^1-(4-(4-fluorobenzyl)thiazol-2-yl)-N^4-methyl-N^4-octylbenzene-1,4-diamine], with over 10000 nM.
With `CCCCCCCCOc1ccc(Nc2nc(-c3ccc(N)nc3)cs2)cc1C(F)(F)F` [compound 679, 5-(2-(3-(trifluoromethyl)-4-(octyloxy)phenylamino)thiazol-4-yl)pyridin-2-amine], the EC50 was under 1000 nM.
In the case of `FC(F)(F)c1cc(Nc2nc(-c3cccnc3)cs2)ccc1OCCCN1CCOCC1` [compound 693, N-(4-(3-morpholinopropoxy)-3-(trifluoromethyl)phenyl)-4-(pyridin-3-yl)thiazol-2-amine], the EC50 lay in the range of 1000 to 10000 nM.
Still for that read-out and setting: then `CCCCCCCCc1ccc(Nc2nc(-c3ccc(OCC(=O)O)cc3)c(C)s2)cc1` [compound 550, 2-(4-(2-(4-octylphenylamino)-5-methylthiazol-4-yl)phenoxy)acetic acid], with under 1000 nM.

Still in this assay, the particulars now being: Hepatitis C virus, replicon based assay of HCV replication inhibition; Table II; read-out: Activity.
Consider `CCCCCOc1ccc(Nc2nc(CN3C[C@H](O)CC3C(=O)OC)cs2)cc1F` (stereo partly drawn) [compound 290, (4R)-methyl 1-((2-(3-fluoro-4-(pentyloxy)phenylamino)thia-zol-4-yl)methyl)-4-hydroxypyrrolidine-2-carboxylate], for which the EC50 was under 1000 nM.
Same read-out and setting: then `CCCCCCCCOc1ccc(Nc2nc(CN3CCN(C4CCCCCC4)CC3)cs2)cc1` [compound 314, 4-((4-cycloheptylpiperazin-1-yl)methyl)-N-(4-(octyloxy)phenyl)thiazol-2-amine], with under 1000 nM.
On to `CCCCCOc1ccc(Nc2nc(-c3ccc(C(=O)NC4CC4)nc3)cs2)cc1C(F)(F)F` [compound 301, N-cyclopropyl-5-(2-(4-(pentyloxy)-3-(trifluoromethyl)phenylamino)thiazolo-4-yl)picolinamide], for which the EC50 was under 1000 nM.
Consider `Fc1ccc(-c2csc(Nc3ccc(OC4CCCC4)c(C(F)(F)F)c3)n2)cc1` [compound 241, N-(4-(cyclopentyloxy)-3-(trifluoromethyl)phenyl)-4-(4-fluorophenyl)thiazol-2-amine], for which the EC50 was under 1000 nM.
On to `CCCCCCCOc1ccc(Nc2nc(-c3cccc(C(=O)O)c3)cs2)cc1` [compound 396, 3-(2-(4-(heptyloxy)phenylamino)thia-zol-4-yl)benzoic acid], for which the EC50 was under 1000 nM.
For `CCCCCCCCOc1ccc(Nc2nc(-c3ccc(F)nc3)cs2)cc1` [compound 488], the EC50 was under 1000 nM.
Turning to `CCCCCOc1ccc(Nc2nc(-c3ccccc3OC)cs2)cc1C(F)(F)F` [compound 374, 4-(2-methoxyphenyl)-N-(4-(pentyloxy)-3-(trifluoromethyl)phenyl)thia-zol-2-amine], the EC50 was in the range of 1000 to 10000 nM.
With `CCOC(=O)c1ccc(Nc2nc(-c3ccc(OCC(=O)O)cc3)c(C)s2)cc1` [compound 337, 2-(4-(2-(4-(ethoxycarbonyl)phenylamino)-5-methylthiazol-4-yl)phenoxy)acetic acid], the EC50 is over 10000 nM.

Still in this assay, the particulars now being: Hepatitis C virus, replicon based assay of HCV replication inhibition; Table IV; read-out: Activity.
On to `CCCCCCCCOc1ccc(Nc2nc(-c3nc4ccccc4n3C)cs2)cc1C(F)(F)F` [compound 770, N-(3-(trifluoromethyl)-4-(octyloxy)phenyl)-4-(1-methyl-1H-benzo[d]imidazol-2-yl)thiazol-2-amine], for which the EC50 was under 1000 nM.
Take `CC(C)(C)c1csc(Nc2nc(-c3cccnc3)cs2)n1` [compound 797, 4-tert-butyl-N-(4-(pyridin-3-yl)thiazol-2-yl)thiazol-2-amine]: the EC50 was over 10000 nM.
Take `COc1ncc(-c2csc(Nc3ccc(C(=O)N4CCC5CCCCC5C4)c(C(F)(F)F)c3)n2)cn1` (centres unmarked) [compound 778, (4-(4-(2-methoxypyrimidin-5-yl)thiazol-2-ylamino)-2-(trifluoromethyl)phenyl) (octahydroisoquinolin-2(1H)-yl)methanone]: the EC50 lay in the range of 1000 to 10000 nM.
As for `CCOC(=O)Cc1ccc(-c2csc(Nc3ccc(OCCCOc4ccccc4)cc3)n2)s1` [compound 931, ethyl 2-(5-(2-(4-(3-phenoxypropoxy)phenylamino)thiazol-4-yl)thiophen-2-yl)acetate], the EC50 fell in the range of 1000 to 10000 nM.
For `O=C(O)Cc1ccc(-c2csc(Nc3ccc(OCCCCc4ccccc4)c(F)c3)n2)s1` [compound 929, 2-(5-(2-(4-(4-phenylbutoxy)-3-fluorophenylamino)thiazol-4-yl)thiophen-2-yl)acetic acid], the EC50 was under 1000 nM.
On the same count and under the same terms, then `CCCCCCCCOc1ccc(Nc2nc(-c3cccc(C(=O)OCC)n3)cs2)cc1C(F)(F)F` [compound 730, ethyl 6-(2-(3-(trifluoromethyl)-4-(octyloxy)phenylamino)thiazol-4-yl)pyridine-2-carboxylate], with under 1000 nM; and `FC(F)(F)c1ccc(Nc2nc(-c3cccnc3)cs2)cc1` [compound 891, N-(4-(trifluoromethyl)phenyl)-4-(pyridin-3-yl)thiazol-2-amine], with 1000 to 10000 nM.
Take `CN(C)C(=O)c1ccc(Nc2nc(-c3cccnc3)cs2)cc1` [compound 821, 4-(4-(pyridin-3-yl)thiazol-2-ylamino)-N,N-dimethylbenzamide]: the EC50 was over 10000 nM.
Same read-out and setting: then `COc1ccc2cc(-c3csc(Nc4ccc(OCC5CCCCC5)c(C(F)(F)F)c4)n3)ccc2c1` [compound 773, N-(4-(cyclohexylmethoxy)-3-(trifluoromethyl)phenyl)-4-(2-methoxynaphthalen-6-yl)thiazol-2-amine], with under 1000 nM.
For `Cc1sc(Nc2ccc(OCCCc3ccccc3)c(C(F)(F)F)c2)nc1-c1cccnc1` [compound 839, N-(4-(3-phenylpropoxy)-3-(trifluoromethyl)phenyl)-5-methyl-4-(pyridin-3-yl)thiazo1-2-amine], the EC50 was under 1000 nM.
`N#Cc1sccc1-c1csc(Nc2ccc(OCC3CCCCC3)c(F)c2)n1` [compound 729, 3-(2-(4-(cyclohexylmethoxy)-3-fluorophenylamino)thiazol-4-yl)thiophene-2-carbonitrile]: the EC50 was under 1000 nM.
